System: 695427-040-R-J1-PDC complex spheroids, viability percent T/C
Assay: Anticancer human tumor 695427-040-R-J1-PDC patient-derived colon adenocarcinoma cell line growth inhibition [GQUAD]
Conditions: for IC50: curve of first compound; for viability, T/C: stronger effect = lower value
Summary of the method: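 Tumor cells were grown as complex spheroids with HUVEC endothelial cells and mesenchymal stem cells as stroma. G-quadruplex stabilizers were combined with targeted agents over half-log dilutions from near the clinical Cmax, or from 10 microM.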

[1] = second compound 0.0316 µM, first compound 0.0316 µM
[2] = second compound 0.0316 µM, first compound 0.1 µM
[3] = second compound 0.0316 µM, first compound 0.316 µM
[4] = second compound 0.0316 µM, first compound 1 µM
[5] = second compound 0.0316 µM, first compound 3.16 µM
[6] = second compound 0.0316 µM, first compound 10 µM
[7] = second compound 0.1 µM, first compound 0.0316 µM
[8] = second compound 0.1 µM, first compound 0.1 µM
[9] = second compound 0.1 µM, first compound 0.316 µM
[10] = second compound 0.1 µM, first compound 1 µM
[11] = second compound 0.1 µM, first compound 3.16 µM
[12] = second compound 0.1 µM, first compound 10 µM
[13] = second compound 0.316 µM, first compound 0.0316 µM
[14] = second compound 0.316 µM, first compound 0.1 µM
[15] = second compound 0.316 µM, first compound 0.316 µM
[16] = second compound 0.316 µM, first compound 1 µM
[17] = second compound 0.316 µM, first compound 3.16 µM
[18] = second compound 0.316 µM, first compound 10 µM
[19] = second compound 1 µM, first compound 0.0316 µM
[20] = second compound 1 µM, first compound 0.1 µM
[21] = second compound 1 µM, first compound 0.316 µM
[22] = second compound 1 µM, first compound 1 µM
[23] = second compound 1 µM, first compound 3.16 µM
[24] = second compound 1 µM, first compound 10 µM
[25] = second compound 3.16 µM, first compound 0.0316 µM
[26] = second compound 3.16 µM, first compound 0.1 µM
[27] = second compound 3.16 µM, first compound 0.316 µM
[28] = second compound 3.16 µM, first compound 1 µM
[29] = second compound 3.16 µM, first compound 3.16 µM
[30] = second compound 3.16 µM, first compound 10 µM
[31] = second compound 10 µM, first compound 0.0316 µM
[32] = second compound 10 µM, first compound 0.1 µM
[33] = second compound 10 µM, first compound 0.316 µM
[34] = second compound 10 µM, first compound 1 µM
[35] = second compound 10 µM, first compound 3.16 µM
[36] = second compound 10 µM, first compound 10 µM
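Further: spheroids exposed to compounds for seven days before readout.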

CC1COCCN1c1cc(C2(S(C)(=N)=O)CC2)nc(-c2ccnc3[nH]ccc23)n1 (centres undefined) + Cc1cnc(CNC(=O)c2c(=O)c3ccc(N4CCCN(C)CC4)nc3n3c2sc2ccccc23)cn1
IC50 (second compound 0.0316 µM): > 10 µM
IC50 (second compound 0.1 µM): > 10 µM
IC50 (second compound 0.316 µM): > 10 µM
IC50 (second compound 1 µM): > 10 µM
IC50 (second compound 3.16 µM): < 0.0316 µM
IC50 (second compound 10 µM): < 0.0316 µM
viability, T/C [1]: 95.6%
viability, T/C [2]: 93.5%
viability, T/C [3]: 95.3%
viability, T/C [4]: 94.2%
viability, T/C [5]: 74.8%
viability, T/C [6]: 66.2%
viability, T/C [7]: 85.2%
viability, T/C [8]: 79.1%
viability, T/C [9]: 89.3%
viability, T/C [10]: 64.4%
viability, T/C [11]: 74.2%
viability, T/C [12]: 55.4%
viability, T/C [13]: 76.8%
viability, T/C [14]: 71.5%
viability, T/C [15]: 77.5%
viability, T/C [16]: 66.1%
viability, T/C [17]: 77.9%
viability, T/C [18]: 50.4%
viability, T/C [19]: 51.8%
viability, T/C [20]: 66.6%
viability, T/C [21]: 59.7%
viability, T/C [22]: 66.7%
viability, T/C [23]: 62.7%
viability, T/C [24]: 47.3%
viability, T/C [25]: 33.4%
viability, T/C [26]: 58.1%
viability, T/C [27]: 53.2%
viability, T/C [28]: 49.4%
viability, T/C [29]: 51.5%
viability, T/C [30]: 36.9%
viability, T/C [31]: 33.8%
viability, T/C [32]: 36.5%
viability, T/C [33]: 41.7%
viability, T/C [34]: 39.1%
viability, T/C [35]: 44%
viability, T/C [36]: 25.5%

O=C(c1cc(Cc2n[nH]c(=O)c3ccccc23)ccc1F)N1CCN(C(=O)C2CC2)CC1 + Cc1cnc(CNC(=O)c2c(=O)c3ccc(N4CCCN(C)CC4)nc3n3c2sc2ccccc23)cn1
IC50 (second compound 0.0316 µM): > 10 µM
IC50 (second compound 0.1 µM): > 10 µM
IC50 (second compound 0.316 µM): > 10 µM
IC50 (second compound 1 µM): > 10 µM
IC50 (second compound 3.16 µM): > 10 µM
IC50 (second compound 10 µM): < 0.0316 µM
viability, T/C [1]: 94.2%
viability, T/C [2]: 101%
viability, T/C [3]: 93.5%
viability, T/C [4]: 77.7%
viability, T/C [5]: 83.5%
viability, T/C [6]: 90.9%
viability, T/C [7]: 102%
viability, T/C [8]: 79%
viability, T/C [9]: 95.5%
viability, T/C [10]: 57%
viability, T/C [11]: 92.7%
viability, T/C [12]: 87.3%
viability, T/C [13]: 95.4%
viability, T/C [14]: 63%
viability, T/C [15]: 91.9%
viability, T/C [16]: 74.7%
viability, T/C [17]: 86.8%
viability, T/C [18]: 80.8%
viability, T/C [19]: 60.3%
viability, T/C [20]: 69.6%
viability, T/C [21]: 53.8%
viability, T/C [22]: 57.4%
viability, T/C [23]: 71%
viability, T/C [24]: 66.2%
viability, T/C [25]: 52.9%
viability, T/C [26]: 53.3%
viability, T/C [27]: 53.5%
viability, T/C [28]: 46.6%
viability, T/C [29]: 62.6%
viability, T/C [30]: 51.1%
viability, T/C [31]: 32.1%
viability, T/C [32]: 53.5%
viability, T/C [33]: 49.9%
viability, T/C [34]: 48%
viability, T/C [35]: 48.1%
viability, T/C [36]: 40.2%

From PubChem BioAssay AID2060492 (Molecular Pharmacology Branch, DTP, NCI, 2025)
